This note sets out measurements from PubChem BioAssay AID1259408 (Genetic Toxicology Data Bank (GENE-TOX), 2018).

The series deals with GENE-TOX genotoxicity assays, various organisms and cells. Description: GENE-TOX mutagenicity studies. The conditions noted are these: for call: Assay Type: In vivo carcinogenicity studies.
[1] abbreviates: Species/Cell Type: Drosophila melanogaster, Assay Type: Sex-linked recessive lethal gene mutation, Assay Code: SRL+, Evaluation Type: Evaluation A (Pre-1980).
[2] abbreviates: Species/Cell Type: Drosophila melanogaster, Sex: Male, Assay Type: Heritable translocation test, chromosome aberrations, Assay Code: DHT+, Evaluation Type: Evaluation A (Pre-1980).
The mark [3] stands for this setting: Species/Cell Type: Human diploid fibroblasts, Assay Type: Unscheduled DNA synthesis (UDS) in vitro, DNA effects, Assay Code: UDHT, Evaluation Type: Evaluation A (Pre-1980).
[4] abbreviates: Species/Cell Type: Human lymphocytes, Assay Type: Sister-chromatid exchange (SCE) in vitro, Assay Code: SCL+D, Dose Response: With dose response, Evaluation Type: Evaluation B (Post-1980).
[5] abbreviates: Species/Cell Type: Human, Assay Type: Sister-chromatid exchange (SCE) in vitro, Assay Code: SC1+D, Dose Response: With dose response, Evaluation Type: Evaluation B (Post-1980).
The mark [6] stands for this setting: Species/Cell Type: Neurospora crassa, Assay Type: Reverse gene mutation, Assay Code: NER+, Evaluation Type: Evaluation A (Pre-1980).
Where [7] appears, read: Species/Cell Type: Nonhuman, Assay Code: CCG+, Evaluation Type: Evaluation A (Pre-1980).
Setting [8] is: Species/Cell Type: Saccharomyces cerevisiae, Assay Type: Mitotic recombination or gene conversion, Assay Code: YEC+, Evaluation Type: Evaluation A (Pre-1980).
The mark [9] stands for this setting: Species/Cell Type: Salmonella typhimurium (one or more of the five standard strains: TA98, TA100, TA1535, TA1537, and TA1538), Assay Type: Histidine reverse gene mutation, Ames assay, Assay Code: SALT, Evaluation Type: Evaluation A (Pre-1980).
The mark [10] stands for this setting: Species/Cell Type: Salmonella typhimurium (one or more of the five standard strains: TA98, TA100, TA1535, TA1537, and TA1538), Assay Type: Histidine reverse gene mutation, Ames assay, Assay Code: SAL+, Evaluation Type: Evaluation A (Pre-1980).
Where [11] appears, read: Species/Cell Type: Salmonella typhimurium (one or more of the five standard strains: TA98, TA100, TA1535, TA1537, and TA1538), Assay Type: Histidine reverse gene mutation, Ames assay, Assay Code: SAL+*, Activation: With metabolic activation, Evaluation Type: Evaluation A (Pre-1980).
Where [12] appears, read: Species/Cell Type: Chinese hamster lung (V79) cells, Assay Type: Forward gene mutation at the HPRT or ouabain locus, Assay Code: V79+, Evaluation Type: Evaluation A (Pre-1980).

The structures appear in SMILES notation. Activity calls are given as the source filed them. The rule behind the calls is not given here.

Regarding `C=O`, the mutagenic call (Species/Cell Type: Chinese hamster ovary (CHO) cells, Assay Type: Forward gene mutation at the HPRT locus, Assay Code: CHOT, Evaluation Type: Evaluation B (Post-1980)) is reported as “no conclusion”; the mutagenic call under setting [1] was “active; positive”; the mutagenic call under setting [2] was “active; positive”; the mutagenic call (Species/Cell Type: Escherichia coli polA (W3119 vs P3478), Assay Type: Rec-assay, DNA effects (bacterial DNA repair), Assay Code: RE1+, Evaluation Type: Evaluation A (Pre-1980)) was “active; positive”; the mutagenic call under setting [3] was “no conclusion”; the mutagenic call under setting [4] is “active; positive”. Moreover, the mutagenic call reads like this: (Species/Cell Type: Human lymphocytes, Assay Type: Sister-chromatid exchange (SCE) in vivo, Assay Code: SCY+, Evaluation Type: Evaluation B (Post-1980)) “active; positive”; under setting [5], “active; positive”; (Species/Cell Type: Mammalian polychromatic erythrocytes, Assay Type: Micronucleus test, chromosome aberrations, Assay Code: MNTT, Evaluation Type: Evaluation B (Post-1980)) “no conclusion”; under setting [6], “active; positive”; (Species/Cell Type: Nonhuman, Assay Type: Sister-chromatid exchange (SCE) in vitro, Assay Code: SC2+D, Dose Response: With dose response, Evaluation Type: Evaluation B (Post-1980)) “active; positive”; under setting [8], “active; positive”. Further, the mutagenic call (Species/Cell Type: Saccharomyces cerevisiae, Assay Type: Reverse gene mutation, Assay Code: YER+, Evaluation Type: Evaluation A (Pre-1980)) was “active; positive”. Besides, the call under setting [7] is “active; positive”.
Turning to `CCCCCN(CCCC(=O)O)N=O`, under setting [9], the mutagenic call is given as “no conclusion”.
Regarding `O=NN1CCCCC1C(=O)O` (stereo unspecified), the mutagenic call (Species/Cell Type: Drosophila melanogaster, Assay Type: Sex-linked recessive lethal gene mutation, Assay Code: SRLT, Evaluation Type: Evaluation A (Pre-1980)) is “no conclusion”.
For the molecule `Cc1c2ccccc2cc2c3c(ccc12)C=C[C@@H](O)[C@@H]3O`, the mutagenic call is “active; positive” (Species/Cell Type: Mouse prostate cells, Assay Type: Cell transformation, Assay Code: CTM+, Evaluation Type: Evaluation A (Pre-1980)) and “active; positive” (Species/Cell Type: Nonhuman, Assay Type: Sister-chromatid exchange (SCE) in vitro, Assay Code: SC2+, Evaluation Type: Evaluation A (Pre-1980)). Moreover, where the note is “Species/Cell Type: Nonhuman, Assay Code: CCGT, Evaluation Type: Evaluation A (Pre-1980)”, the call was “no conclusion”.
`O=C(O)C(c1ccc(Cl)cc1)c1ccc(Cl)cc1`: the mutagenic call runs as follows: under setting [1], “active; positive”; (Species/Cell Type: Nonhuman, Assay Type: Chromosome aberrations in vitro, Assay Code: CY&-, Evaluation Type: Evaluation A (Pre-1980)) “inactive; negative”; (Species/Cell Type: Salmonella typhimurium, Serratia marcesens, Assay Type: Forward and reverse gene mutation, host-mediated assay, Assay Code: HM2-, Evaluation Type: Evaluation A (Pre-1980)) “inactive; negative”.
Regarding `CCNc1nc(Cl)nc(NCC)n1` (tested in a mixture with another compound), under “Species/Cell Type: Saccharomyces cerevisiae, Assay Type: Mitotic recombination or gene conversion, Assay Code: YEC-, Evaluation Type: Evaluation A (Pre-1980)”, the mutagenic call is “inactive; negative”.
As to `CN(CC(C)(C)C)N=O`, the mutagenic call under setting [9] is “no conclusion”.
In the case of `CC1CN(/N=C/c2ccc([N+](=O)[O-])o2)C(=O)N1` (stereo unspecified), under setting [10], the mutagenic call was “active; positive”.
On to `Cc1c2ccccc2c(C)c2c1cc(F)c1ccccc12`, for which the mutagenic call (Species/Cell Type: Chinese hamster lung (V79) cells, Assay Type: Forward gene mutation at the HPRT or ouabain locus, Assay Code: V79-*, Activation: With metabolic activation, Evaluation Type: Evaluation A (Pre-1980)) was “inactive; negative”.
`COP(N)(=O)SC` (stereo unspecified): the mutagenic call (Species/Cell Type: Nonhuman, Assay Type: Sister-chromatid exchange (SCE) in vitro, Assay Code: SC2T, Evaluation Type: Evaluation B (Post-1980)) is given as “no conclusion”.
For `CCCCOc1ccc2nc3cc(Cl)ccc3c(NCCCN(CC)CCCl)c2n1`, the mutagenic call (Species/Cell Type: Chinese hamster ovary (CHO) cells, Assay Type: Forward gene mutation at the HPRT locus, Assay Code: CHO+, Evaluation Type: Evaluation B (Post-1980)) is “active; positive”.
On to `C1=Cc2c(cc3ccc4cccc5ccc2c3c45)CC1`, for which the mutagenic call under setting [11] is “active; positive”.
`N[C@H](Cc1ccc(N(CCCl)CCCl)cc1)C(=O)O`: the mutagenic call under setting [1] was “active; positive”.
Same read-out and setting: then `CN(C)c1nc(N(C)C)nc(N(C)C)n1`, with “active; positive”.
For `Cc1ccc2cc3c(ccc4ccccc43)c3c2c1CC3O` (stereo unspecified), the mutagenic call reads like this: under setting [12], “active; positive”; under setting [11], “active; positive”. Further, the call (Species/Cell Type: Nonhuman, Assay Code: CCG+L, Evaluation Type: Evaluation A (Pre-1980)) is “active; positive”.
As for `Nc1ccc(N=Nc2ccc(-c3ccc(N=Nc4c(S(=O)(=O)O)cc5c(c4N)C(=O)/C(=N/Nc4ccccc4)C(S(=O)(=O)O)=C5)cc3)cc2)c(N)c1`, the mutagenic call (Species/Cell Type: Drosophila melanogaster, Assay Type: Sex-linked recessive lethal gene mutation, Assay Code: SRL-, Evaluation Type: Evaluation A (Pre-1980)) is “inactive; negative”. Also, under setting [7], the call was “active; positive”.
For `COC(=O)CN(CC(=O)OC)C1C[C@H]1N(CC(=O)OC)CC(=O)OC` (stereo partly specified), the mutagenic call under setting [12] was “active; positive”.
For the molecule `c1ccc(-c2ccc(C3CO3)cc2)cc1` (stereo unspecified), under setting [10], the mutagenic call was “active; positive”.
Turning to `CCOC(N)=O`, the mutagenic call is “inactive; negative” (Species/Cell Type: Drosophila melanogaster, Assay Type: Aneuploidy, sex chromosome gain, chromosome aberrations, Assay Code: DAG-M, Evaluation Type: Evaluation A (Pre-1980)); “active; positive” (Species/Cell Type: Drosophila melanogaster, Assay Type: Aneuploidy, whole sex chromosome loss, chromosome aberrations, Assay Code: DAC+M, Evaluation Type: Evaluation A (Pre-1980)); “active; positive” under setting [1]; “active; positive” under setting [2]; “inactive; negative” (Species/Cell Type: Escherichia coli WP2, Assay Type: Tryptophan reverse gene mutation, Assay Code: WP2-, Evaluation Type: Evaluation A (Pre-1980)); “inactive; negative” (Species/Cell Type: Escherichia coli polA (W3110 vs P3478), Assay Type: Rec-assay, DNA effects (bacterial DNA repair), Assay Code: RE2-, Evaluation Type: Evaluation A (Pre-1980)). In addition, the mutagenic call was “no conclusion” (Species/Cell Type: Escherichia coli polA (W3119 vs P3478), Assay Type: Rec-assay, DNA effects (bacterial DNA repair), Assay Code: RE1T, Evaluation Type: Evaluation A (Pre-1980)); “active; positive” (Species/Cell Type: Fischer rat embryo (RLV/1706) cells, Assay Type: Cell transformation, viral enhanced, Assay Code: CTR+, Evaluation Type: Evaluation A (Pre-1980)); “no conclusion” under setting [3]; “active; positive” under setting [4]; “active; positive” under setting [5]; “active; positive” (Species/Cell Type: Mammalian polychromatic erythrocytes, Assay Type: Micronucleus test, chromosome aberrations, Assay Code: MNT+, Evaluation Type: Evaluation A (Pre-1980)). Further, the mutagenic call is “active; positive” (Species/Cell Type: Mouse embryo (AKR/ME) cells, Assay Type: Cell transformation, Assay Code: CTK+, Evaluation Type: Evaluation A (Pre-1980)); “inactive; negative” (Species/Cell Type: Mouse, Sex: Male, Assay Type: Sperm morphology, Assay Code: SPI-, Evaluation Type: Evaluation A (Pre-1980)); “active; positive” under setting [6]; “active; positive” (Species/Cell Type: Nonhuman, Assay Type: Sister-chromatid exchange (SCE) in vitro, Assay Code: SC2+D, Dose Response: With dose response, Evaluation Type: Evaluation A (Pre-1980)); “active; positive” (Species/Cell Type: Nonhuman, Assay Type: Sister-chromatid exchange (SCE) in vivo, Assay Code: SC3+D, Dose Response: With dose response, Evaluation Type: Evaluation B (Post-1980)); “active; positive” under setting [8]. Besides, the mutagenic call is “inactive; negative” (Species/Cell Type: Saccharomyces cerevisiae, Assay Type: Mitotic recombination or gene conversion, Assay Code: YEH-*, Activation: With metabolic activation, Evaluation Type: Evaluation A (Pre-1980)); “inactive; negative” (Species/Cell Type: Salmonella typhimurium (one or more of the five standard strains: TA98, TA100, TA1535, TA1537, and TA1538), Assay Type: Histidine reverse gene mutation, Ames assay, Assay Code: SAL-, Evaluation Type: Evaluation A (Pre-1980)); “inactive; negative” (Species/Cell Type: Salmonella typhimurium, Assay Type: Forward and reverse gene mutation, host-mediated assay, Assay Code: HMA-, Evaluation Type: Evaluation A (Pre-1980)); “active; positive” (Species/Cell Type: Syrian hamster embryo (SHE) cells, Assay Type: Cell transformation, clonal assay, Assay Code: CTC+*, Activation: With metabolic activation, Evaluation Type: Evaluation A (Pre-1980)). Further, the call under setting [7] is “active; positive”.
